PubChem BioAssay (NCI)
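Abbreviation: GI50, concentration required for 50% inhibition of growth. At the TGI there is no net growth.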

How the values were obtained:
Assay in all cases: NCI anticancer screen, dose series, 384-well format
786-0 renal = test system: 786-0 renal
A498 renal = test system: A498 renal
A549 NSCLC = test system: A549 NSCLC
ACHN renal = test system: ACHN renal
BT-549 breast = test system: BT-549 breast
CAKI-1 renal = test system: CAKI-1 renal
COLO 205 colon = test system: COLO 205 colon
DU-145 prostate = test system: DU-145 prostate
EKVX NSCLC = test system: EKVX NSCLC
HCT-116 colon = test system: HCT-116 colon
HCT-15 colon = test system: HCT-15 colon
HL-60(TB) leukemia = test system: HL-60(TB) leukemia
HOP-62 NSCLC = test system: HOP-62 NSCLC
HOP-92 NSCLC = test system: HOP-92 NSCLC
HS 578T breast = test system: HS 578T breast
HT29 colon = test system: HT29 colon
IGROV1 ovarian = test system: IGROV1 ovarian
K-562 leukemia = test system: K-562 leukemia
KM12 colon = test system: KM12 colon
M14 melanoma = test system: M14 melanoma
MALME-3M melanoma = test system: MALME-3M melanoma
MCF7 breast = test system: MCF7 breast
MDA-MB-231 breast = test system: MDA-MB-231 breast
MDA-MB-435 melanoma = test system: MDA-MB-435 melanoma
MDA-MB-468 breast = test system: MDA-MB-468 breast
MOLT-4 leukemia = test system: MOLT-4 leukemia
NCI-H226 lung = test system: NCI-H226 lung
NCI-H23 lung = test system: NCI-H23 lung
NCI-H322M lung = test system: NCI-H322M lung
NCI-H460 NSCLC = test system: NCI-H460 NSCLC
NCI-H522 lung = test system: NCI-H522 lung
OVCAR-3 ovarian = test system: OVCAR-3 ovarian
OVCAR-4 ovarian = test system: OVCAR-4 ovarian
OVCAR-5 ovarian = test system: OVCAR-5 ovarian
OVCAR-8 ovarian = test system: OVCAR-8 ovarian
PC-3 prostate = test system: PC-3 prostate
RXF 393 renal = test system: RXF 393 renal
SF-268 CNS = test system: SF-268 CNS
SF-295 CNS = test system: SF-295 CNS
SF-539 CNS = test system: SF-539 CNS
SK-MEL-2 melanoma = test system: SK-MEL-2 melanoma
SK-MEL-28 melanoma = test system: SK-MEL-28 melanoma
SK-MEL-5 melanoma = test system: SK-MEL-5 melanoma
SK-OV-3 ovarian = test system: SK-OV-3 ovarian
SN12C renal = test system: SN12C renal
SNB-19 CNS = test system: SNB-19 CNS
SNB-75 CNS = test system: SNB-75 CNS
SR leukemia = test system: SR leukemia
SW-620 colon = test system: SW-620 colon
T-47D breast = test system: T-47D breast
TK-10 renal = test system: TK-10 renal
U251 glioblastoma = test system: U251 glioblastoma
UACC-257 melanoma = test system: UACC-257 melanoma
UACC-62 melanoma = test system: UACC-62 melanoma
UO-31 renal = test system: UO-31 renal

## CC(C)[C@H]1C(=O)N[C@@H](CCCN=C(N)N)C(=O)NCC(=O)N[C@@H](CC(=O)O)C(=O)N[C@H](Cc2ccccc2)C(=O)N1C
786-0 renal
  GI50: 7.76 µM
  TGI: > 100 µM
A498 renal
  GI50: 0.765 µM
  TGI: > 100 µM
A549 NSCLC
  GI50: 39.3 µM
  TGI: > 100 µM
ACHN renal
  GI50: 4.33 µM
  TGI: > 100 µM
BT-549 breast
  GI50: 2.13 µM
  TGI: > 100 µM
CAKI-1 renal
  GI50: 0.72 µM
  TGI: 14.4 µM
COLO 205 colon
  GI50: > 100 µM
  TGI: > 100 µM
DU-145 prostate
  GI50: 8.01 µM
  TGI: > 100 µM
EKVX NSCLC
  GI50: 2.3 µM
  TGI: 9.86 µM
HCT-116 colon
  GI50: 26.7 µM
  TGI: > 100 µM
HCT-15 colon
  GI50: > 100 µM
  TGI: > 100 µM
HL-60(TB) leukemia
  GI50: 42.7 µM
  TGI: > 100 µM
HOP-62 NSCLC
  GI50: 4.51 µM
  TGI: > 100 µM
HOP-92 NSCLC
  GI50: 6.51 µM
  TGI: > 100 µM
HS 578T breast
  GI50: 3.76 µM
  TGI: > 100 µM
HT29 colon
  GI50: 53.1 µM
  TGI: > 100 µM
IGROV1 ovarian
  GI50: 2.38 µM
  TGI: > 100 µM
K-562 leukemia
  GI50: 37.7 µM
  TGI: > 100 µM
KM12 colon
  GI50: 42.5 µM
  TGI: > 100 µM
M14 melanoma
  GI50: > 100 µM
  TGI: > 100 µM
MALME-3M melanoma
  GI50: > 100 µM
  TGI: > 100 µM
MCF7 breast
  GI50: 13.9 µM
  TGI: > 100 µM
MDA-MB-231 breast
  GI50: 35.5 µM
  TGI: > 100 µM
MDA-MB-435 melanoma
  GI50: > 100 µM
  TGI: > 100 µM
MDA-MB-468 breast
  GI50: 59.8 µM
  TGI: > 100 µM
MOLT-4 leukemia
  GI50: 5.83 µM
  TGI: 18 µM
NCI-H226 lung
  GI50: 5.9 µM
  TGI: > 100 µM
NCI-H23 lung
  GI50: > 100 µM
  TGI: > 100 µM
NCI-H322M lung
  GI50: > 100 µM
  TGI: > 100 µM
NCI-H460 NSCLC
  GI50: 58.3 µM
  TGI: > 100 µM
NCI-H522 lung
  GI50: 3.98 µM
  TGI: > 100 µM
OVCAR-3 ovarian
  GI50: 53.9 µM
  TGI: > 100 µM
OVCAR-4 ovarian
  GI50: 7.1 µM
  TGI: > 100 µM
OVCAR-5 ovarian
  GI50: 74.5 µM
  TGI: > 100 µM
OVCAR-8 ovarian
  GI50: 11 µM
  TGI: > 100 µM
PC-3 prostate
  GI50: > 100 µM
  TGI: > 100 µM
RXF 393 renal
  GI50: 0.194 µM
  TGI: 0.858 µM
SF-268 CNS
  GI50: 3.29 µM
  TGI: > 100 µM
SF-295 CNS
  GI50: > 100 µM
  TGI: > 100 µM
SF-539 CNS
  GI50: 27.2 µM
  TGI: > 100 µM
SK-MEL-2 melanoma
  GI50: > 100 µM
  TGI: > 100 µM
SK-MEL-28 melanoma
  GI50: > 100 µM
  TGI: > 100 µM
SK-MEL-5 melanoma
  GI50: > 100 µM
  TGI: > 100 µM
SK-OV-3 ovarian
  GI50: 41.8 µM
  TGI: > 100 µM
SN12C renal
  GI50: > 100 µM
  TGI: > 100 µM
SNB-19 CNS
  GI50: 15.7 µM
  TGI: > 100 µM
SNB-75 CNS
  GI50: 0.226 µM
  TGI: 0.871 µM
SR leukemia
  GI50: 2.59 µM
  TGI: 12.2 µM
SW-620 colon
  GI50: 37.8 µM
  TGI: > 100 µM
T-47D breast
  GI50: 38.3 µM
  TGI: > 100 µM
TK-10 renal
  GI50: 2 µM
  TGI: > 100 µM
U251 glioblastoma
  GI50: 8.88 µM
  TGI: > 100 µM
UACC-257 melanoma
  GI50: > 100 µM
  TGI: > 100 µM
UACC-62 melanoma
  GI50: 70.8 µM
  TGI: > 100 µM
UO-31 renal
  GI50: 5.4 µM
  TGI: 99.4 µM
